The values that follow come from ChEMBL document CHEMBL1201862, “PubChem BioAssay data set” (2004).

Among the test systems are 786-0; COLO 205; DU-145; HCT-15; HOP-62; HOP-92; Hs-578T; KM12; MCF7; MDA-N; NCI-H522; RXF 393; SF-295; SK-MEL-2; SN12C; U-251; NCI-H226; SK-MEL-28.
Common to all, as to assay: growth of human tumour cells (NCI), 48 h

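Each compound was tested at five concentrations against cells in 96-well plates for 48 hours. GI50 marks 50% less growth.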 Active and inactive are the calls of the source. Rule as the data show it: active = GI50 up to about 1.1 µM and inactive = higher. A value given as a limit tells only on which side of the number the result lay.

Regarding `COc1ccc(C/C=C(\C)CCO)cc1`, the GI50 was > 100 µM (inactive) with 786-0; > 100 µM (inactive) in the assay with COLO 205; > 100 µM (inactive) in the assay with DU-145; above 100 µM in the assay with HCT-15; > 100 µM (inactive) with HOP-62; > 100 µM (inactive) in the assay with HOP-92. Further, the GI50 with Hs-578T, with KM12, with MCF7, in the assay with MDA-N, in the assay with NCI-H522 and in the assay on RXF 393 was > 100 µM (inactive) throughout. For the same compound, the GI50 with SF-295, in the assay with SK-MEL-2, in the assay with SN12C and in the assay on U-251 was > 100 µM (inactive) each time.

For `CCOP(=O)(OCC)c1cc2cc(O)ccc2oc1=O`, the GI50 is > 100 µM (inactive) in the assay on 786-0; > 100 µM (inactive) in the assay on COLO 205; > 100 µM (inactive) with DU-145; above 100 µM in the assay with HCT-15; > 100 µM (inactive) in the assay with HOP-62; > 100 µM (inactive) with HOP-92. The GI50 in the assay on Hs-578T, in the assay on KM12, in the assay on MCF7, in the assay with MDA-N, with NCI-H226 and with NCI-H522 was > 100 µM (inactive) in each case. Also, the GI50 in the assay with RXF 393, in the assay with SF-295, with SK-MEL-28, with SN12C and with U-251 was > 100 µM (inactive) throughout.

As for `COc1ccc(C2OC2C(=O)C23CC4CC(CC(C4)C2)C3)cc1` (configuration not stated), the GI50 in the assay with 786-0 is 46.3 µM (inactive); with DU-145, 90.8 µM (inactive); with HCT-15, 41.4 µM; in the assay on HOP-62 it was 31.1 µM (inactive); in the assay on HOP-92, 19.1 µM (inactive); with Hs-578T, 13.6 µM (inactive). The GI50 is 96.8 µM (inactive) in the assay on KM12; 47.9 µM (inactive) with MCF7; 37.8 µM (inactive) with MDA-N; > 100 µM (inactive) with NCI-H226; 45.5 µM (inactive) with NCI-H522; 37.6 µM (inactive) with RXF 393. Also, the GI50 in the assay with SF-295 is 33.7 µM (inactive); in the assay with SK-MEL-28, > 100 µM (inactive); in the assay on SN12C, 36.8 µM (inactive); in the assay on U-251 it was 36.1 µM (inactive).

Consider `CC1=CC(c2ccccc2)OP1(=O)c1ccccc1` (configuration not stated), for which the GI50 was > 100 µM (inactive) in the assay with 786-0; > 100 µM (inactive) in the assay on COLO 205; > 100 µM (inactive) with DU-145; above 100 µM in the assay on HCT-15; > 100 µM (inactive) with HOP-62; > 100 µM (inactive) in the assay with HOP-92. Further, the GI50 in the assay with Hs-578T, with KM12, with MCF7, with MDA-N, in the assay with NCI-H226 and in the assay on NCI-H522 was > 100 µM (inactive) throughout. Besides, the GI50 with SF-295, with SK-MEL-28, in the assay on SK-MEL-2, in the assay with SN12C and with U-251 was > 100 µM (inactive) in each case.

As for `CNC1(C(=O)O)CC1`, the GI50 in the assay on 786-0 is > 100 µM (inactive); in the assay with DU-145 it was > 100 µM (inactive); in the assay on HCT-15, above 100 µM; in the assay on HOP-62, > 100 µM (inactive); in the assay on HOP-92, > 100 µM (inactive); in the assay on Hs-578T it was > 100 µM (inactive). Further, the GI50 with KM12, in the assay on MCF7, in the assay with MDA-N, in the assay with NCI-H226, in the assay with NCI-H522 and in the assay with RXF 393 was > 100 µM (inactive) each time. For the same compound, the GI50 in the assay on SF-295, with SK-MEL-28, in the assay with SN12C and in the assay with U-251 was > 100 µM (inactive) throughout.

Take `CC1OC2OC3C(OCC(O)C3O)OC(=O)[C@]34CCC(C)(C)CC3C3=CCC5[C@@]6(C)C[C@H](O)[C@H](OC7OC(CO)C(O)C(O)C7OC7OC(COC(=O)CC(C)(O)CC(=O)OC1C(O)C2O)C(O)C(O)C7O)[C@@](C)(CO)C6CC[C@@]5(C)[C@]3(C)CC4` (some centres not stated): the GI50 in the assay with 786-0 is 1.21 µM (inactive); in the assay with COLO 205, 1.52 µM (inactive); with DU-145 it was 1.75 µM (inactive); with HCT-15 it was 1.53 µM; in the assay with HOP-62, 1.44 µM (inactive); with HOP-92, 1.54 µM (inactive). For the same compound, the GI50 is 1.79 µM (inactive) in the assay with Hs-578T; 1.48 µM (inactive) in the assay on KM12; 4.46 µM (inactive) with MCF7; 1.52 µM (inactive) in the assay on MDA-N; 2.48 µM (inactive) in the assay with NCI-H226; 1.64 µM (inactive) in the assay on NCI-H522. The GI50 in the assay with SF-295 was 1.78 µM (inactive); in the assay on SK-MEL-28, 1.5 µM (inactive); in the assay on SK-MEL-2 it was 1.59 µM (inactive); with SN12C it was 1.96 µM (inactive); in the assay on U-251, 1.57 µM (inactive).

In the case of `CSc1c(CC(=O)O)n(Cc2ccccc2)c2ccccc12`, the GI50 in the assay on 786-0 was > 100 µM (inactive); in the assay on COLO 205, > 100 µM (inactive); in the assay with DU-145, > 100 µM (inactive); with HCT-15, 74.5 µM; in the assay with HOP-62, > 100 µM (inactive); in the assay on HOP-92, > 100 µM (inactive). Besides, the GI50 in the assay on Hs-578T is > 100 µM (inactive); with KM12, > 100 µM (inactive); with MCF7 it was > 100 µM (inactive); in the assay with MDA-N, > 100 µM (inactive); in the assay with NCI-H522, 89.3 µM (inactive); in the assay with RXF 393, > 100 µM (inactive). Besides, the GI50 was 79.8 µM (inactive) in the assay on SF-295; > 100 µM (inactive) in the assay with SK-MEL-28; > 100 µM (inactive) in the assay on SK-MEL-2; > 100 µM (inactive) in the assay with SN12C; > 100 µM (inactive) in the assay on U-251.

Regarding `O=C1c2c(ccc3c2CCCC3)CC12Cc1ccc3c(c1C2=O)CCCC3`, the GI50 in the assay on 786-0 is > 100 µM (inactive); in the assay on DU-145 it was > 100 µM (inactive); in the assay on HCT-15, above 100 µM; with HOP-62 it was > 100 µM (inactive); in the assay on HOP-92, 60.7 µM (inactive); in the assay on Hs-578T it was > 100 µM (inactive). The GI50 in the assay on MCF7, in the assay with MDA-N, with NCI-H522, in the assay with RXF 393, in the assay on SF-295 and in the assay on SK-MEL-28 was > 100 µM (inactive) throughout. Further, the GI50 in the assay on SK-MEL-2 was > 100 µM (inactive); in the assay on U-251, 56.9 µM (inactive).

As for `CCC1=C(c2ccc(OC)cc2)CC[C@@]2(CCNC2=O)[C@@H]1C`, the GI50 in the assay with 786-0 is > 100 µM (inactive); in the assay with COLO 205 it was > 63.4 µM (inactive); in the assay with DU-145 it was > 100 µM (inactive); in the assay with HCT-15, above 100 µM; with HOP-62 it was > 100 µM (inactive); with HOP-92, > 100 µM (inactive). Moreover, the GI50 with Hs-578T is > 52.2 µM (inactive); with KM12 it was > 94.2 µM (inactive); in the assay on MCF7, 70.8 µM (inactive); in the assay on MDA-N it was > 93.1 µM (inactive); with NCI-H226, > 100 µM (inactive); in the assay with NCI-H522, 32.4 µM (inactive). Besides, the GI50 was > 55.2 µM (inactive) in the assay on SF-295; > 100 µM (inactive) in the assay with SK-MEL-28; > 90.8 µM (inactive) with SK-MEL-2; > 100 µM (inactive) with SN12C; > 100 µM (inactive) with U-251.

As to `C=C1C(=O)O[C@H]2C1C[C@@H](OC(C)=O)/C(C)=C/CC[C@@]1(C)O[C@H]21` (some centres not stated), the GI50 with 786-0 is 11.5 µM (inactive); in the assay on COLO 205 it was 3.7 µM (inactive); in the assay with DU-145, 14.6 µM (inactive); with HCT-15, 6.53 µM; in the assay on HOP-62 it was 17.6 µM (inactive); in the assay on HOP-92 it was 16 µM (inactive). Moreover, the GI50 in the assay on Hs-578T is 26.1 µM (inactive); in the assay on KM12, 21.8 µM (inactive); in the assay on MCF7, 10.3 µM (inactive); in the assay on MDA-N, 2.93 µM (inactive); in the assay on NCI-H522 it was 2.26 µM (inactive); in the assay on RXF 393 it was 6.53 µM (inactive). Further, the GI50 in the assay on SF-295 was 21.1 µM (inactive); in the assay with SK-MEL-28, 10.7 µM (inactive); with SK-MEL-2 it was 21.8 µM (inactive); with SN12C, 14.3 µM (inactive); in the assay with U-251, 70.1 µM (inactive).

Consider `CC(C)(C)NC(=O)C12C3C4C1C1C2C3C41C(=O)NC(C)(C)C` (configuration not stated), for which the GI50 was > 100 µM (inactive) in the assay on 786-0; > 100 µM (inactive) with COLO 205; > 100 µM (inactive) with DU-145; above 100 µM in the assay with HCT-15; 58.9 µM (inactive) in the assay on HOP-62; 15.1 µM (inactive) in the assay on HOP-92. In addition, the GI50 in the assay with Hs-578T was 32.8 µM (inactive); with KM12, > 100 µM (inactive); in the assay on MCF7 it was > 100 µM (inactive); in the assay on MDA-N, > 100 µM (inactive); in the assay on NCI-H522 it was > 100 µM (inactive); in the assay with RXF 393, 40.8 µM (inactive). For the same compound, the GI50 in the assay with SF-295 is 80 µM (inactive); with SK-MEL-28, > 100 µM (inactive); in the assay on SK-MEL-2 it was > 100 µM (inactive); in the assay on SN12C, > 100 µM (inactive); with U-251, > 100 µM (inactive).

For `COC(=O)C1=C(O)C(C(=O)OC)[C@]2(O)[C@H](C(=O)OC)[C@H]1C[C@@H](c1ccc(O)cc1)[C@H]2C(=O)OC` (some centres not stated), the GI50 in the assay with 786-0 is 39 µM (inactive); in the assay on COLO 205, 31.2 µM (inactive); in the assay on DU-145, 23.1 µM (inactive); in the assay with HCT-15 it was 26.1 µM; in the assay with HOP-62 it was 18 µM (inactive); in the assay on HOP-92, 79.8 µM (inactive). Besides, the GI50 was 26.1 µM (inactive) in the assay with Hs-578T; 21.8 µM (inactive) in the assay with KM12; 22.6 µM (inactive) with MCF7; 20.1 µM (inactive) in the assay on MDA-N; 44.4 µM (inactive) in the assay with NCI-H226; 15.8 µM (inactive) in the assay on RXF 393. Also, the GI50 with SF-295 is 22 µM (inactive); in the assay with SK-MEL-28, 41.8 µM (inactive); with SN12C it was 17.7 µM (inactive); with U-251 it was 18.3 µM (inactive).
